In patent US8822449B2, “Substituted aminoindanes and analogs thereof, and the pharmaceutical use thereof” (Sanofi, priority 2008, dated 2014):

Target: T1, sodium-proton exchanger of subtype 3 (NHE3) (Homo sapiens, UniProt P48764)
T1 construct: expressed in transfected cells
T1 sequence (P48764 26-834): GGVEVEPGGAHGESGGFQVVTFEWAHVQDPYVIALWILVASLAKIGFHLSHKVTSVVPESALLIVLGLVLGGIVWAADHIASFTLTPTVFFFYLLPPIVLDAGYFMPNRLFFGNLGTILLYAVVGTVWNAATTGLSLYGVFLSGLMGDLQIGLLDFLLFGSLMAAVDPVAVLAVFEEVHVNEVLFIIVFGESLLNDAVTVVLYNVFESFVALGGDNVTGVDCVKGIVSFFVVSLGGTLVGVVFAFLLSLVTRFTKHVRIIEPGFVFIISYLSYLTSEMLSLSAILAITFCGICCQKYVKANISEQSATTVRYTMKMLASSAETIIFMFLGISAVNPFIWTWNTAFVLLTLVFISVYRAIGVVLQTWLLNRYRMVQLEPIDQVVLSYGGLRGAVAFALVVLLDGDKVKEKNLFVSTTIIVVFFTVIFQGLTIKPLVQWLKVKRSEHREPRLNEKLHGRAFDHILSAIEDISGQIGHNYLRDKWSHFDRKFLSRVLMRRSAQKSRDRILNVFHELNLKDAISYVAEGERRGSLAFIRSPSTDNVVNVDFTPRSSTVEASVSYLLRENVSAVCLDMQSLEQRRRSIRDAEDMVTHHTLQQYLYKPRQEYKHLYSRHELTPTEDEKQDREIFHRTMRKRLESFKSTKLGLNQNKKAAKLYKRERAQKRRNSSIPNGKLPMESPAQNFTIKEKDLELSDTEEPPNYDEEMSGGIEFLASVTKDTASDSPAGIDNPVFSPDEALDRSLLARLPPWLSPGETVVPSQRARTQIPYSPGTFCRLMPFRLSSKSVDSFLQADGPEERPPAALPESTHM
Test: Recovery of intracellular pH (pHi) after acidification in LAP1 cells stably expressing NHE3 (BCECF fluorescence, FLIPR)
Assay type: cell-based
Conditions: LAP1 cells stably expressing NHE3; pH recovery after acidification; range 1 is % inhibition at 10 μM; read-out: Activity range (inhibitory effect on NHE3)

| Compound | IC50 | inhibition at 10 µM |
| --- | --- | --- |
| Cc1cn(-c2ccc(O[C@H]3c4cc(Cl)cc(Cl)c4C[C@@H]3N3CC[C@@H](O)C3)cc2)c(C(C)C)n1 [Example 714, (R)-1-{trans-(1S,2S)-4,6-Dichloro-1-[4-(2-isopropyl-4-methyl-imidazol-1-yl)-phenoxy]-indan-2-yl}-pyrrolidin-3-ol] | 1 to 10 µM | – |
| CS(=O)(=O)c1ccc(O[C@H]2c3cc(F)cc(F)c3C[C@@H]2N2CC[C@@H](O)C2)cc1 [Example 28, (R)-1-[(1S,2S)-4,6-difluoro-1-(4-methanesulfonylphenoxy)indan-2-yl]pyrrolidin-3-ol] | 1 to 10 µM | – |
| Fc1ccc(O[C@@H]2c3ccccc3C[C@H]2N2C[C@H]3CNC[C@H]3C2)c(F)c1 (racemic) [Example 9, 2-[rac-trans-(1,2)-1-(2,4-difluorophenoxy)indan-2-yl]octahydropyrrolo[3,4-c]pyrrole] | 1 to 10 µM | – |
| CN1CCN([C@H]2Cc3c(Cl)cc(Cl)cc3[C@@H]2Oc2ccc(C#N)cc2F)CC1 [Example 485, 4-[(1S,2S)-4,6-dichloro-2-(4-methylpiperazin-1-yl)indan-1-yloxy]-3-fluorobenzonitrile] | – | 20 to 50% |
| CS(=O)(=O)c1ccc(O[C@H]2c3cc(Cl)cc(F)c3C[C@@H]2N2CC[C@@H](O)C2)c(Cl)c1 [Example 106, (R)-1-[trans-(1S,2S)-6-chloro-1-(2-chloro-4-methanesulfonylphenoxy)-4-fluoroindan-2-yl]pyrrolidin-3-ol] | < 1 µM | – |
| Fc1ccc(O[C@H]2c3cc(Cl)cc(Cl)c3C[C@@H]2N2CCCC2)c2ncccc12 [Example 593, 8-((1S,2S)-4,6-dichloro-2-pyrrolidin-1-ylindan-1-yloxy)-5-fluoroquinoline] | – | 20 to 50% |
| N#Cc1cc(Cl)ccc1O[C@H]1c2ccccc2CC[C@@H]1N1CCOCC1 (racemic) [Example 585, 5-chloro-2-(rac-trans-(1,2)-2-morpholin-4-yl-1,2,3,4-tetrahydronaphthalen-1-yloxy)benzonitrile] | – | 20 to 50% |
| CN1CCN(c2ccc(Cl)c(O[C@H]3c4cc(Cl)cc(F)c4C[C@@H]3N3CC[C@@H](O)C3)c2)C1=O [Example 340, 1-{4-chloro-3-[(1S,2S)-6-chloro-4-fluoro-2-((R)-3-hydroxypyrrolidin-1-yl)indan-1-yloxy]phenyl}-3-methylimidazolidin-2-one] | < 1 µM | – |
| Cc1nnc(C)n1-c1ccc(O[C@H]2c3cc(Cl)ccc3C[C@@H]2N2CC[C@@H](O)C2)cc1 [Example 145, (R)-1-{trans-(1S,2S)-6-chloro-1-[4-(3,5-dimethyl-[1,2,4]triazol-4-yl)phenoxy]indan-2-yl}pyrrolidin-3-ol] | < 1 µM | – |
| COCCN(C)[C@H]1Cc2c(Cl)cc(Cl)cc2[C@@H]1Oc1ccc(S(C)(=O)=O)cc1 [Example 218, [trans-(1S,2S)-4,6-dichloro-1-(4-methanesulfonylphenoxy)indan-2-yl]-(2-methoxyethyl)-methylamine] | – | 20 to 50% |
| CC(=O)Nc1cccc(OC2c3ccccc3CC2N(C)C)c1 (racemic) [Example 638, N-[3-(rac-trans-(1,2)-2-dimethylaminoindan-1-yloxy)phenyl]acetamide] | 1 to 10 µM | – |
| Cc1nnc(C)n1-c1ccc(O[C@H]2c3cc(Cl)ccc3C[C@@H]2N2CCCC2)cc1 [Example 502, 4-[4-(trans-(1S,2S)-6-chloro-2-pyrrolidin-1-ylindan-1-yloxy)phenyl]-3,5-dimethyl-4H-[1,2,4]triazole] | < 1 µM | – |
| CN1CCN(S(=O)(=O)c2ccc(O[C@H]3c4cc(Cl)cc(Cl)c4C[C@@H]3N3CC[C@@H](O)C3)cc2)CC1 [Example 742, (R)-1-{trans-(1S,2S)-4,6-Dichloro-1-[4-(4-methyl-piperazine-1-sulfonyl)-phenoxy]-indan-2-yl}-pyrrolidin-3-ol] | 1 to 10 µM | – |
| Cc1nnc(C)n1-c1ccc(O[C@H]2c3cc(Cl)cc(Cl)c3C[C@@H]2N2CC[C@H](N)C2)cc1 [Example 207, (S)-1-{trans-(1S,2S)-4,6-dichloro-1-[4-(3,5-dimethyl-[1,2,4]triazol-4-yl)phenoxy]indan-2-yl}pyrrolidin-3-ylamine] | < 1 µM | – |
| C[C@]1(O)CCN([C@H]2Cc3c(Cl)cc(Cl)cc3[C@@H]2Oc2ccc(S(C)(=O)=O)cc2)C1 (racemic) [Example 146, (S)-1-[(1S,2S)-4,6-dichloro-1-(4-methanesulfonylphenoxy)indan-2-yl]-3-methylpyrrolidin-3-ol] | 1 to 10 µM | – |
| NS(=O)(=O)c1ccc(O[C@H]2c3ccccc3C[C@@H]2CN2CCCC2)cc1Cl (racemic) [Example 389, 2-chloro-4-(2-pyrrolidin-1-ylmethylindan-1-yloxy)benzenesulfonamide] | 1 to 10 µM | – |
| CCCC1(N)CCCN([C@H]2Cc3c(Cl)cc(Cl)cc3[C@@H]2Oc2ccc(S(C)(=O)=O)cc2)C1 (stereo partly drawn) [Example 300, 1-[trans-(1S,2S)-4,6-dichloro-1-(4-methanesulfonylphenoxy)indan-2-yl]-3-propylpiperidin-3-ylamine] | 1 to 10 µM | – |
| CC(=O)Nc1cccc(O[C@H]2c3cc(Cl)cc(Cl)c3C[C@@H]2N2CCN(C)CC2)c1 [Example 697, N-{3-[trans-(1S,2S)-4,6-dichloro-2-(4-methylpiperazin-1-yl)indan-1-yloxy]phenyl}acetamide] | 1 to 10 µM | – |
| CN(C1CCNCC1)[C@@H]1Cc2ccccc2[C@H]1Oc1cccc(N2CCNCC2)c1 (racemic) [Example 629, methyl-[rac-trans-(1,2)-1-(3-piperazin-1-ylphenoxy)indan-2-yl]piperidin-4-ylamine] | 1 to 10 µM | – |

Further lines, results first:

| IC50 | inhibition at 10 µM | Compound |
| --- | --- | --- |
| 1 to 10 µM | – | N#Cc1ccc(O[C@@H]2c3ccccc3C[C@H]2N2CCC(CN)C2)cc1Cl (mixture of isomers) [Example 540, 4-[rac-trans-(1,2)-2-(3-aminomethylpyrrolidin-1-yl)indan-1-yloxy]-2-chlorobenzonitrile] |
| < 1 µM | – | N#Cc1ccc(O[C@H]2c3ccccc3CC[C@@H]2N2CCC[C@@H](N)C2)cc1F (racemic) [Example 510, 4-[rac-trans-(1,2)-2-((R)-3-aminopiperidin-1-yl)-1,2,3,4-tetrahydronaphthalen-1-yloxy]-2-fluorobenzonitrile] |
| 1 to 10 µM | – | CCCc1ccc(NC(C)=O)cc1O[C@H]1c2ccccc2CC[C@@H]1N1CCC[C@H](N)C1 (racemic) [Example 683, N-{3-[rac-trans-(1,2)-2-((S)-3-aminopiperidin-1-yl)-1,2,3,4-tetrahydronaphthalen-1-yloxy]-4-propylphenyl}acetamide] |
| 1 to 10 µM | – | N[C@@H]1CCCN([C@@H]2Cc3ccccc3[C@H]2Oc2ccc3oc(=O)sc3c2)C1 (racemic) [Example 579, 5-[rac-trans-(1,2)-2-((R)-3-aminopiperidin-1-yl)indan-1-yloxy]benzo[1,3]oxathiol-2-one] |
| < 1 µM | – | Cc1nnc(C)n1-c1ccc(O[C@H]2c3ccccc3C[C@@H]2N2CCCC2)cc1 (racemic) [Example 405, 3,5-dimethyl-4-[4-(rac-trans-(1,2)-2-pyrrolidin-1-ylindan-1-yloxy)phenyl]-4H-[1,2,4]triazole] |
| 1 to 10 µM | – | NC1CCN([C@@H]2Cc3ccccc3[C@H]2Oc2ccc3cc[nH]c3c2)C1 (mixture of isomers) [Example 262, 1-[rac-trans-(1,2)-1-(1H-indol-6-yloxy)indan-2-yl]pyrrolidin-3-ylamine] |
| 1 to 10 µM | – | NCC1CCN([C@@H]2Cc3ccccc3[C@H]2Oc2cccc(N3CCNCC3)c2)CC1 (racemic) [Example 616, C-{1-[rac-trans-(1,2)-1-(3-piperazin-1-ylphenoxy)indan-2-yl]piperidin-4-yl}methylamine] |
| – | 20 to 50% | COc1cccc(CC#N)c1O[C@H]1c2ccccc2CC[C@@H]1N1CCC[C@@H](N)C1 (racemic) [Example 229, {2-[rac-trans-(1,2)-2-((R)-3-aminopiperidin-1-yl)-1,2,3,4-tetrahydronaphthalen-1-yloxy]-3-methoxyphenyl}acetonitrile] |
| – | 20 to 50% | Cc1nnc(C)n1-c1cccc(O[C@H]2c3ccccc3C[C@@H]2N2CCCC2)c1 (racemic) [Example 404, 3,5-dimethyl-4-[3-(rac-trans-(1,2)-2-pyrrolidin-1-ylindan-1-yloxy)phenyl]-4H-[1,2,4]triazole] |
| 1 to 10 µM | – | N#Cc1cc(Cl)ccc1O[C@@H]1c2ccccc2C[C@H]1N1CCC(N)C1 (mixture of isomers) [Example 375, 2-[rac-trans-(1,2)-2-(3-aminopyrrolidin-1-yl)indan-1-yloxy]-5-chlorobenzonitrile] |
| 1 to 10 µM | – | COc1ccc(C)cc1O[C@@H]1c2ccccc2C[C@H]1N1CCC(CN)C1 (mixture of isomers) [Example 607, C-{1-[rac-trans-(1,2)-1-(2-methoxy-5-methylphenoxy)indan-2-yl]pyrrolidin-3-yl}methylamine] |
| – | 20 to 50% | CS(=O)(=O)c1ccc(O[C@H]2c3ccccc3C[C@@H]2N2CCCC(NCC(F)(F)F)C2)cc1 (stereo partly drawn) [Example 219, {(R)-1-[trans-(1S,2S)-1-(4-methanesulfonylphenoxy)indan-2-yl]piperidin-3-yl}-(2,2,2-trifluoroethyl)amine] |
